Article PMC12951430, “Modular Vinyl Phosphonamidates for Cysteine-Directed Protein Targeting” (Journal of the American Chemical Society, 2026)

Columns and labels:
[1] = unprotected lysine 10 equiv, 5 days, pH 7.4 and pH 8.5, room temperature
Method: To this end, unprotected lysine (10 equiv) was incubated with 1a for 5 days (pH 7.4 and pH 8.5, room temperature).
The assay was performed analogously to glutathion reactivity using L -lysine. In addition to pH 7.4
The reaction was monitored for a total
of 5 days and aliquotes were taken at indicated timepoints and analyzed via UPLC -UV/MS.

BTK in RAMOS cells = biological target: T1, BTK in RAMOS cells (Homo sapiens, UniProt Q06187); assay: Gel-based ABPP of BTK probes in RAMOS cells; type: cell-based; details: 250 nM, 1 h, 37 °C
T1 construct: we performed a gel-based ABPP experiment using RAMOS cells; host or cells: RAMOS
T1 sequence (Q06187 whole entry): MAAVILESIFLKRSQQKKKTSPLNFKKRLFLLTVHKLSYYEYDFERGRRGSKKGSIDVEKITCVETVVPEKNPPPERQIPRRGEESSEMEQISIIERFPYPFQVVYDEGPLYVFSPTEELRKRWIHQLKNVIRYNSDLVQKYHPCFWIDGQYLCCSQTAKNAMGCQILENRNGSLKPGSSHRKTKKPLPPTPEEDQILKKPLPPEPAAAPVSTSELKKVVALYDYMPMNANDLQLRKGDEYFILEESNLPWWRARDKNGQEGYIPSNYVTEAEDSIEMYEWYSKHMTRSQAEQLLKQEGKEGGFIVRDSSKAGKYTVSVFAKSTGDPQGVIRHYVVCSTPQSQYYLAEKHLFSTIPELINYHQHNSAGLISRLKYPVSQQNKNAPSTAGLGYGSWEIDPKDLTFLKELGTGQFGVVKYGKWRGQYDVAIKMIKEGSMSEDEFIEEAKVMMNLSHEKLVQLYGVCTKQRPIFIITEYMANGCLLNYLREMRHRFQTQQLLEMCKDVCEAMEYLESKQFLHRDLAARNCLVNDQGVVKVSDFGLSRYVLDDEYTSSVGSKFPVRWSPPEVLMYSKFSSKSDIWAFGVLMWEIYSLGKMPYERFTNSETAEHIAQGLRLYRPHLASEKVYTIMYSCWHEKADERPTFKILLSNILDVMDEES
Text: Motivated by these promising results, we wanted to extend the scope toward a different class of kinase inhibitors. […] Inspired by these findings, we synthesized a series of VPA probes based on the pyrazolo[3,4-d]-pyrimidine scaffold (8–11, Figure a), each harboring a different aromatic linker. To compare their reactivity and selectivity for BTK, we performed a gel-based ABPP experiment using RAMOS cells. […] In contrast, for all four PA probes, only one intense band was obtained at the same height as BTK. […] Analogously to Afatinib-derived probe 4a, we wanted to investigate whether one stereoisomer might show preferential binding.
(b) Comparison of the in-cell reactivity profiles of BTK probes 8–12 in RAMOS cells (250 nM, 1 h, 37 °C) analyzed by gel-based ABPP. […]
Fluorescence was monitored over 4 h at 30 °C every 60 seconds (λex = 360 nm and λem = 492 nm).
Background‑subtracted fluorescence intensity (RFU) was plotted against time (s), and data were fitted to a single‑phase association model: […]
4.7 In-cell protein labeling and in -gel fluorescence analysis […]
Afterwards, the precipitate was redissolved in 40 µl 8 M urea (100 mM Tris, pH 8), 8 µl Laemmli buffer were added and the samples were denatured at 95 °C for 5 minutes. Proteins were seperated via SDS - PAGE (12% or 4-20% acrylamide gels) and analyzed on a Gel Doc XR+ (Bio-Rad, USA). […]

RAMOS cells = assay: Streptavidin pull-down with BTK probes in RAMOS cells (LFQ); type: cell-based, human; details: 10 μM probe, log2-fold change >2.5, p <0.01
Method: (b) Comparison of the in-cell reactivity profiles of BTK probes 8–12 in RAMOS cells (250 nM, 1 h, 37 °C) analyzed by gel-based ABPP. (c) Superposition of the two stereoisomers of 9 covalently docked onto the crystal structure of BTK (PDB: 5P9J).
To verify the identity of the protein(s) labeled by our best-performing probe 9, we performed in-cell labeling followed by streptavidin pull-down coupled to LC-MS/MS analysis.
4.8 In-cell protein labeling and s ample preparation for proteomic pull-down Cells were cultured, treated and lysed as described in 4.4. Lysates (approx. 200 μg of protein each) […]
Afterwards, the samples we re processed according to a procedure published by Becker et al. 10: A total of 50 μl of mixed hydrophobic and hydrophilic carboxylate -coated magnetic beads (1:1, prewashed with PBS; Seramag™, Cytavia) was added to the click reaction mixture followed by 600 μl of absolute ethanol to precipitate the proteins. Beads were washed thrice with of 80% ethanol and proteins were eluted by two sequential washes of 0.2% SDS in PBS. […]
The obtained raw-data was analyzed using FragPipe (v20 to 21) using the built-in LFQ-MBR workflow using the whole human proteome as search space and applying the following MSFragger11 settings: […]

Compound	reactivity toward L-lysine / buffer stability [1]	in-cell reactivity profile (gel bands) (BTK in RAMOS cells)	off-targets significantly enriched (RAMOS cells)
C=CP(=O)(Nc1ccccc1)OCC (stereo not drawn) [1a]	no reaction or degradation products were detected		
C#Cc1cccc(Oc2ccc(-c3nn(C4CCCN(C(=O)C=C)C4)c4ncnc(N)c34)cc2)c1 (stereo not drawn) [compound 12, PF-06658607, reference compound]		additional prominent off-target band around 60 kDa	73
